We go through one compound from patent USRE49873E1, “APP specific bace inhibitors (ASBIs) and uses thereof” (BUCK INSTITUTE FOR RESEARCH ON AGING, priority 2012, dated 2024).

SMILES strings stand for the structures. “Also recorded” adds a separate entry of the source.

The subject of test [1] is β-CTF production in CHO cells stably over-expressing human APP. Put plainly: β-CTF western blot in CHO cells over-expressing human APP. The conditions noted are these: 10 μM, 24 hr, western blot of cell lysates. In kind it is cell-based, Chinese Hamster. The procedure:
Chinese Hamster Ovary (CHO) cells stably over-expressing human APP were treated with 10 μM Galangin or DMSO for 24 hr, then the cell lysates and conditioned media were collected. The levels of full length APP and β-CTF in the cell lysates and the levels of sAPPα in the conditioned media were detected by western blot. […] BACE1-dependent cleavage of SEAP-NRG1-β1 was evaluated by SEAP assays with supernatants of control human embryonic kidney 293 (HEK293) cells (SEAP-NRG1-β1) or HEK293 cells co-expressing BACE1 (SEAP-NRG1-β1+BACE1), treated with DMSO or Galangin (10 μM). An increase in shedding of the SEAP-NRG1-b1 fusion protein was measured upon BACE1 co-expression. Shedding in co-expressing cells was not suppressed by Galangin. Error bars indicate SEM. (N.S., p>0.05; n=4, student t test).
The Chinese Hamster Ovary (CHO) cell line over-expressing human AβPP (7 W) was kindly provided by Dr. Edward Koo. Plasmid constructs were transiently transfected into HEK293T or 7 W cells with Lipofectamine 2000 (Invitrogen). Western Blot analysis was performed as previously described (Swistowski et al. (2009) J. Neurosci., 29: 15703-15712). Briefly, 48 hr after transfection, cells were harvested and lysed in NP-40 Cell Lysis Buffer (50 mM TrisHCl, pH 8.0, 150 mM NaCl and 1% NP-40). Cell lysates were mixed with 1×LDS loading buffer (Invitrogen) and 50 mM DTT, and boiled at 100° C. for 10 min. […]
A general note: A western blot detects proteins with antibodies after separation by electrophoresis.

The subject of test [2] is APP-Gal4 transactivation in HEK293T cells. Put plainly: APP-Gal4/Mint3/TAZ transactivation assay. Conditions: Mint3 and TAZ present, galangin at 10 μM. It counts as cell-based. From the text: FIGS. 7A and 7B illustrate inhibition of APP-Gal4 and APLP2-Gal4 transactivation by galangin. […] This transactivation was inhibited by Galangin and BACE inhibitor IV. FIG. 7B: Potent transactivation of transcription was also achieved with APLP2 fused to the Gal4 DNA binding domain when both Mint3 and TAZ were present. This transactivation was inhibited by Galangin and BACE inhibitor IV. […] The normalized luciferase activity is expressed as a percentage of the DMSO treated control (FIGS. 7A, 7B). Error bars indicate SEM. (*, p<0.05; **, p<0.01; ***, p<0.001; n=3, student t test).
This assay system is described by Orcholski et al. (2011) J. Alzheimers Dis., 23(4):689-699. Transactivation is achieved upon transfection with Mint3 and Taz. The ASBI was expected to inhibit only the transactivation of APP-Gal4, not that of APLP2-Gal4. For these experiments cells were co-transfected with a Gal4-luciferase reporter plasmid (to measure transactivation), a beta-galactosidase plasmid (to normalize for transfection efficiency), and the test plasmids identified. The normalized luciferase activity was expressed as fold induction over transcription by APP-Gal4 alone (FIG. 7A), or as fold induction over APLP2-Gal4 alone (FIG. 7B).
HEK293T cells were co-transfected with five plasmids: (1) pG5E1B-luc, 0.3 μg; (2) pCMV-LacZ, 0.1 μg; (3) pMst-APP (APP-Gal4) or pcDNA3.1-APLP2-Gal4, 0.3 μg; (4) pCMV5-Mint3, 1.0 μg; (5) pEF-N-FLAG-TAZ, 1.0 μg. Cells were harvested 48 hr after transfection in 0.2 ml per well Cell Culture Lysis Buffer (Promega), and their luciferase and β-galactosidase activities were determined with the Promega luciferase assay kit and the Promega β-galactosidase assay kit, respectively. The luciferase activity was standardized by the β-galactosidase activity to control for transfection efficiency and general effects on transcription. Transfections were performed at 80-90% cofluency in six-well plates using Lipofectamine 2000 (Invitrogen).

The target of test [3] is T1, TRX-eAPP575-624 (Homo sapiens, UniProt P05067).
T1 construct: thioredoxin (TRX) and residues 575-624 of the ectodomain; made in house
T1 sequence (P05067 650-699): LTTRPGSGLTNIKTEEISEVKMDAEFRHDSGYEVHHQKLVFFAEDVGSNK
Kind of test: Surface plasmon resonance binding to APP ectodomain fragments. Conditions: FIG. 5B. The procedure: Three fusion proteins were immobilized via amine coupling using 20 mM phosphate, 125 mM sodium chloride pH 7.4. The three proteins were MBP-eAPP230-624—a fusion protein containing maltose binding protein (MBP) and residues 230624 of the ectodomain of APP (90-kDa) (FC4), eAPP230-624—a protein that contains only residues 230-624 (45-kDa)(FC2), and TRX-eAPP575-624—a fusion protein containing thioredoxin (TRX) and residues 575-624 of the ectodomain (20 -kDa) (FC3). The proteins were produced as described in Libeu, et al. (2011) J. Alzheimers Dis., 25(3): 547-566 Libeu et al (2011). The flow cell FC1 was used as a control. Galangin was diluted from 10 mM solutions in DMSO to 50 μM in 1% DMSO, 20 mM sodium phosphate pH 7.4, 125 mM sodium chloride, 0.05% Tween and then serially diluted by 1.5 for 10 steps. Binding traces were recorded for each dilution with a binding phase of 60 seconds and a dissociation phase of 240 seconds. Each cycle was performed at 20° C. with a constant flow rate of 20 μl/min. […]
The binding affinity of the compounds for the ectodomain of APP was determined using SPR. […] Galangin at various concentrations were used in the flow through over the chip and the plasmon resonance signal was determined using a Biacore T100 (FIG. 5B).
For orientation: In SPR one partner is held on a chip, and binding of the other changes the refractive index at the surface.

Test [4] concerns the target MBP-C125 APP (Homo sapiens, UniProt P05067). Kind of test: Nitrocellulose filter ligand-binding (ligand blot) assay. Conditions: qualitative; UV and MALDI detection. The procedure:
To explore the interaction of ASBIs with APP a ligand blot technique was used, where MBP-C125 APP was dot blotted on a nitrocellulose blot and binding to the protein was detected upon treatment with the bioflavonoids. A nitrocellulose filter-binding assay with bovine serum albumin (BSA) was used as a control. The binding of bioflavonoids was determined using both UV and MALDI mass spectrometric analysis.

MBP-C125 APP, sequence (P05067 646-770 limits assumed): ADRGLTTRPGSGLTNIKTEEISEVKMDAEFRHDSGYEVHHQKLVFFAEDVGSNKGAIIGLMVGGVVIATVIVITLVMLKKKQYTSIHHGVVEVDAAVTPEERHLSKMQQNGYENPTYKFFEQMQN

Regarding `O=c1c(O)c(-c2ccccc2)oc2cc(O)cc(O)c12` [Galangin], in test [1], the β-CTF production result is reported as “inhibits β-CTF production”. Further, the APP-Gal4 transactivation entry in test [2] is “inhibited”; in test [2] (listed as galangin) it was “inhibit; also recorded: inhibits APP-Gal4 and APLP2-Gal4”. Besides, the “binding to APP by SPR” value in test [3] was “demonstrated binding to the APP substrate”. Also, the “binding to the APP substrate” value in test [4] was “shows binding to the APP substrate”.
